“Also recorded” adds a separate entry of the source. Structures can show the parent of a compound that is named as a salt. Where two headings read alike, the source gives them in different places. Blank lines part the entries; values can stand above or below the molecule they belong to.
Tests used:
Solubility = format: physicochemical; conditions: for solubility in aqueous solvents, comparison crystalline free acid vs crystalline hydrochloride: in words; for Solubility-pH7: pH 7
Text: "Solubility" is a direct consequence of a solid's structure and the intermolecular forces holding the solid together and is defined as the mount of drug which exists in solution when equilibrium is achieved between solution and solid state material.

[1] = Dissolution rate (Table II, FIG. 9); format: physicochemical; conditions: shown graphically in FIG. 9
Text: "Dissolution rate" is the kinetic translation of solubility for a well stirred system under sink conditions.

In vivo release = conditions: for In Vivo Release: Table II; for sustained release properties in vivo: in words
Text: "In-vivo release" is the biological consequence of the dissolution rate of a compound which is characterized by time to maximum concentration and the maximum concentration in the biological fluid of interest.

[2] = Stability in bulk, aqueous and other formulations; format: physicochemical
Hygroscopity = format: physicochemical; conditions: for Hygroscopity: Table II
Text: "Hygroscopity" is the ability of a compound to pick up moisture from or yield moisture to the atmosphere with changes in relative humidity.

[3] = Processing (micronization); format: physicochemical; conditions: Table II, cell wraps: 'Difficult to micronize'
[4] = In vitro dissolution of ceftiofur oil suspension formulations (Example 7); format: physicochemical; conditions: 100 mg/ml oil formulation, 500 ml pH 7 aqueous media, 50 RPM paddle, FIG. 6
Procedure: 100 mg samples of crystalline ceftiofur free acid, amorphous ceftiofur free acid (prepared as described in Example 1) and crystalline ceftiofur hydrochloride, which were all prepared as oil formulations as described in Example 4 above, were loaded into teflon dissolution cells and sealed with a constant surface area dialysis membrane. The loaded cells were placed in a standard dissolution apparatus containing 500 ml of pH 7 aqueous dissolution media which was stirred by a 50 RPM rotating paddle.
The results obtained are shown below in FIG. 6 below.

[5] = Plasma disposition of crystalline ceftiofur hydrochloride and crystalline ceftiofur free acid oil suspensions in cattle (Example 9); format: in vivo; conditions: SC, 2.2 mg/kg, oil suspension, 16 animals/treatment; separate studies
Procedure: In separate but similarly designed studies conducted in the same laboratory, crystalline ceftiofur free acid (CFA) and crystalline ceftiofur hydrochloride (HCl) suspensions were administered subcutaneously to cattle at a dose of 2.2 mg/kg body weight. In each experiment, plasma samples were obtained for up to 120 hours after drug administration for determination of ceftiofur and its metabolites. The results are shown graphically in FIG. 8 below by plotting plasma concentration (on a logarithmic scale) versus time using average data for 16 animals/treatment. The primary decision criteria (that most related to efficacy) was considered to be the time that the ceftiofur metabolite concentrations remained above 0.2 mcg/ml (t>0.2). Less important parameters measures included "area under the concentration-time curve" (AUC) for each treatment and time to peak and peak concentrations.

[6] = parameters: species or system cattle; conditions: bovine, in vivo, sc, 4.4 mg/kg
Procedure: Cattle were administered a single subcutaneous dose (4.4 mg/kg body weight) of crystalline ceftiofur free acid and amorphous ceftiofur free acid (both prepared and then formulated as described above in Examples 1, 3 and 4). The concentration of plasma ceftiofur and desfuroylceftiofur related metabolites were determined over time for 120 hours. The primary decision criteria (that most related to efficacy) was considered to be the time that the ceftiofur metabolite concentrations remained above 0.2 mcg/ml (t>0.2). Less important parameters calculated included "area under the concentration-time curve" (AUC) for each treatment and time to maximum concentrations (tmax).
The results are shown graphically in FIG. 7 below by plotting plasma concentration of desfuroylceftiofur acetamide (DCA) versus time using average data for 6 animals/treatment. […] This is especially important in light of the two forms obtaining statistically equivalent peak concentrations (9.1 mcg/ml for the amorphous ceftiofur free acid versus 7.3 mcg/ml for the crystalline ceftiofur free acid).

[7] = Plasma disposition of aqueous suspensions of ceftiofur crystalline free acid in cattle (Example 5); format: in vivo, cattle (Holstein calves); conditions: aqueous suspension 100 mg/mL, single dose 1.1 mg ceftiofur activity/kg
Procedure: Sixteen Holstein calves were administered ceftiofur crystalline free acid in an aqueous suspension (100 mg/mL) by the intramuscular (IM) or subcutaneous (SC) route of administration as a single dose of 1.1 mg ceftiofur activity/kg in a crossover study (each calf got each treatment), with a two-week washout between doses. Blood samples were obtained serially for 120 hours for analysis of ceftiofur and metabolites (measured as desfuroylceftiofur acetamide by HPLC). The primary decision variable was the time ceftiofur metabolite concentrations remained above 0.2 μg/mL (t>0.2), with secondary decision variables being "relative area under the concentration-time curve" (AUC) of the treatments and injection site irritancy assessed antemortem by visual and manual inspection of the injection sites over time. Both t>0.2 and AUC were calculated using both the predictive pharmacokinetic equation method and the direct graphical method of trapezoids (AUC) and log linear interpolation (t>0.2).

[8] = Plasma disposition of oil suspension of ceftiofur crystalline free acid vs aqueous solution of ceftiofur sodium in cattle (Example 6); format: in vivo, cattle (Holstein calves); conditions: SC; for t>0.2 (time ceftiofur metabolite concentrations remained above 0.2 μg/mL): 2.2 mg ceftiofur activity/kg
Procedure: Sixteen Holstein calves were administered ceftiofur crystalline free acid in an oil suspension (100 mg/mL) or ceftiofur sodium (NAXCEL® Sterile Powder) as an aqueous solution (50 mg/mL) subcutaneously (SC) in a crossover study (each calf received each treatment), with a two-week washout period between doses (2.2 mg ceftiofur activity/kg body weight). Blood samples were obtained serially for 120 hours after drug administration for analysis of ceftiofur and metabolites (measured as desfuroylceftiofur acetamide by HPLC). The primary decision variable was the time ceftiofur metabolite concentrations remained above 0.2 μg/mL (t>0.2), with secondary decision variables being "relative area under the concentration-time curve" (AUC) of the treatments and injection site irritancy assessed antemortem by visual and manual inspection of the injection site over time. Both t>0.2 and AUC were calculated using both the predictive pharmacokinetic equation method and the direct graphical method of trapezoids (AUC) and log-linear interpolation (t>0.2).

[9] = Comparison of time above minimum plasma concentration for ceftiofur derivatives; format: in vivo
Text: Using the criteria for sustained release as the time which plasma concentrations remain above some minimum concentration (t>0.2), a comparison of various derivatives of ceftiofur can be made. […] This difference is of practical and statistical significance.

[10] = unstable in 6 weeks (cell wraps over two lines)
[11] = listed as Crystalline Free Acid

solubility (Solubility; pH 7, pH 7, cell of crystalline hydrochloride salt, read-out: Solubility-pH7): ~100 mg/mL
Dissolution Rate [1]: Fast
In Vivo Release (In vivo release): Fast
Stability in Aqueous Formulations (>90% initial potency) [2, 10]: Unstable
Hygroscopity (Hygroscopity): Moderate
Processing (micronize) [3]: Micronizes easier
release from the oil formulation into the dissolution media [4]: very fast release
t>0.2 (time metabolite concentrations remained above 0.2 mcg/ml) [5]: 38.5 h
Molecule: CO/N=C(\C(=O)N[C@@H]1C(=O)N2C(C(=O)O)=C(CSC(=O)c3ccco3)CS[C@H]12)c1csc(N)n1 [crystalline ceftiofur hydrochloride, reference compound]
solubility in aqueous solvents, comparison crystalline free acid vs crystalline hydrochloride (Solubility): much greater solubility than the crystalline free acid
sustained release properties in vivo (In vivo release): does not have useful sustained release properties

solubility in non-polar solvents (Solubility; non-polar solvents): insoluble in non-polar solvents
Solubility-pH7 (Solubility; [11]): ≈ 8 mg/mL
solubility in water (Solubility; water): sparingly soluble in water
Dissolution Rate [1, 11]: Slow
In Vivo Release (In vivo release; [11]): Prolonged
sustained release properties in vivo (In vivo release): has sustained release properties in vivo
Stability in Aqueous Formulations (>90% initial potency) ([2]; >90% initial potency): Stable for 6 months
stability (in bulk and formulations) relative to crystalline hydrochloride salt and amorphous free acid ([2]; in words): superior
Hygroscopity (Hygroscopity; [11]): Low
hygroscopicity relative to crystalline hydrochloride salt and amorphous free acid (Hygroscopity; in words): superior
Processing (micronize) [3, 11]: Micronizes easier
t>0.2 (time ceftiofur metabolite concentrations remained above 0.2 μg/mL) ([7]; IM): 26.98 h
t>0.2 (time ceftiofur metabolite concentrations remained above 0.2 μg/mL) ([7]; SC, P=0.257 vs IM): 30.43 h
terminal phase half-life (absorption phase, flip-flop model) compared with ceftiofur sodium ([8]; crystalline free acid in oil, 2.2 mg/kg): longer
t>0.2 (time ceftiofur metabolite concentrations remained above 0.2 μg/mL) ([8]; oil suspension 100 mg/mL, P<0.0001 vs ceftiofur sodium): 121.58 h
bioavailability compared with aqueous solution of ceftiofur sodium ([8]; oil suspension vs aqueous solution, 2.2 mg/kg, P>0.05): equally bioavailable
release from the oil formulation into the dissolution media [4]: significantly reduced release
AUC (area under the concentration-time curve) [6]: 183 µg·h/mL
AUC compared with amorphous ceftiofur free acid [6]: more than twice
peak concentrations [6]: 7.3 µg/mL
t>0.2 (time metabolite concentrations remained above 0.2 mcg/ml) [6]: 101 h
time to peak concentration (tmax) [6]: 8 h
t>0.2 (time metabolite concentrations remained above 0.2 mcg/ml) [5]: 121.6 h
rank order of duration above minimum plasma concentration (t>0.2) ([9]; oil formulations): the longest
Molecule: CON=C(C(=O)NC1C(=O)N2C(C(=O)O)=C(CSC(=O)c3ccco3)CSC12)c1csc(N)n1 (stereo not shown) [crystalline ceftiofur free acid]
solubility in aqueous solvents, comparison crystalline free acid vs crystalline hydrochloride (Solubility): lower solubility in aqueous solvents than its crystalline hydrochloride salt
Dissolution Rate [1]: slow dissolution rate; also recorded: slower
rank order of time above the selected minimum plasma concentration (t>0.2) ([9]; aqueous formulations): sodium<crystalline hydrochloride<crystalline free acid<zinc

t>0.2 (time ceftiofur metabolite concentrations remained above 0.2 μg/mL) ([8]; aqueous solution 50 mg/mL): 45.50 h
Molecule: CO/N=C(\C(=O)N[C@@H]1C(=O)N2C(C(=O)O)=C(CSC(=O)c3ccco3)CS[C@H]12)c1csc(N)n1 [ceftiofur sodium]
rank order of time above the selected minimum plasma concentration (t>0.2) ([9]; aqueous formulations): sodium<crystalline hydrochloride<crystalline free acid<zinc
rank order of duration above minimum plasma concentration (t>0.2) ([9]; oil formulations): sodium<crystallinehydrochloride<zinc<crystalline free acid

Continued, molecule first:

Molecule: CON=C(C(=O)NC1C(=O)N2C(C(=O)O)=C(CSC(=O)c3ccco3)CSC12)c1csc(N)n1 (stereo not shown) [amorphous ceftiofur free acid, reference compound]
Solubility-pH7 (Solubility; listed as Amorphous Free Acid): ≈ 100 mg/mL
Dissolution Rate ([1]; listed as Amorphous Free Acid): Fast
In Vivo Release (In vivo release; listed as Amorphous Free Acid): Fast
Stability in Aqueous Formulations (>90% initial potency) [2, 10]: Unstable
Hygroscopity (Hygroscopity; listed as Amorphous Free Acid): High
release from the oil formulation into the dissolution media [4]: very fast release
AUC (area under the concentration-time curve) [6]: 70 µg·h/mL
peak concentrations [6]: 9.1 µg/mL
t>0.2 (time metabolite concentrations remained above 0.2 mcg/ml) [6]: 41 h
time to peak concentration (tmax) [6]: 2 h

Molecule: zinc
rank order of duration above minimum plasma concentration (t>0.2) ([9]; in vivo): sodium<crystallinehydrochloride<zinc<crystalline free acid
rank order of time above the selected minimum plasma concentration (t>0.2) ([9]; in vivo): sodium<crystalline hydrochloride<crystalline free acid<zinc

Reference: patent US5721359A, “Crystalline ceftiofur free acid” (Pharmacia & Upjohn Company, priority 1995, dated 1998)
